Assays:
purified rat liver HDAC = purified rat liver HDAC inhibition; type: biochemical; settings: relative to compound 17
Experimental: (§1) The effect of compounds on the enzymatic activity of purified recombinant human HDAC-1, -2, -3, -6, and -8 activity and of purified rat liver HDAC was examined by measuring the deacetylation of synthetic peptides in various preparations of HDACs. HDAC assays were performed using a two-step enzymatic reaction where enzyme activity is correlated to the release of […] (AMC). AMC fluorescence is measured in a fluorescent plate reading using λex380 nm and λen440 nm.
(§2) The reaction was allowed to proceed for 40 min at 37° C., after which developer solution (0.5% trypsin, 10 μM trichostatin A (TSA)) was added to obtain a final concentration of 0.1% trypsin, 2 μM TSA. After 30 minutes at room temperature, the amount of free fluorogenic AMC was measured as described above.

RXR = experiment: RXR-mediated transcription, RXRE luciferase reporter in MCF7 cells; type: cell-based
Source text: (§3) The effect of various compounds of the invention on RAR-mediated transcription in MCF7 breast cancer cells was examined by measuring their effect on the transcription of a luciferase reporter gene under the control of a TK promoter placed downstream of a RAR response element. In addition, the effect of the compounds on the closely related RXR-mediated transcription was examined by measuring their effect on the transcription of a luciferase reporter gene under the control of a TK promoter placed downstream of a RXR response element.
(§4) Typically, 10,000 cells were plated in 96 wells plates in phenol red-free RPMI medium supplemented with 10% charcoal-stripped Fetal Bovine Serum. After 24 hours, cells were transfected with 0.1 μg of luciferase reporter plasmid and 0.01 μg of a reporter plasmid expressing renilla luciferase (RLuc) gene under the control of a SV40 promoter, using Fugene 6 transfection reagent (0.5 μl/well Promega Corporation). Cells were treated in triplicate with compounds or vehicle (DMSO) for 24 hours. Luciferase and renilla luciferase activities were measured using Dual-Glo reagent (Promega Corporation). Luciferase activity was normalized in each well for renilla activity.

[1] = system: IMR-32 neuroblastoma cells; experiment: cytotoxicity, cell survival (CellTiterGlo) in IMR-32; type: cell-based; settings: relative to compounds 17 and 8
Experimental: (§5) The cytotoxicity of compounds was examined and directly compared to compound 17, by measuring cell survival of clonal tumor cell lines IMR-32, BE2C (neuroblastoma), as well as MDA-MB-231, BT20, HCC-38 (Basal) and MCF7 (luminal) breast cancer cells (ATCC). Cells were cultured in phenol red-free RPMI medium supplemented with 10% FBS and 1 mM Ala-Glu. Typically, 10,000-20,000 cells/well were plated in a 96 well plate (Costar 3197). Cells were exposed to compounds or vehicle (1% DMSO final). Cells were maintained in the presence of compound for four or five days. Media and compounds were renewed every 48 hours. Cell survival was measured using the luminescence CellTiterGlo kit (Promega Corporation) and expressed as relative light unit as fold over DMSO.

[2] = molecular target: purified recombinant human HDAC-1 (Homo sapiens, UniProt Q13547); experiment: HDAC-1 enzymatic inhibition (AMC fluorogenic peptide deacetylation); type: biochemical; settings: up to
Sequence of purified recombinant human HDAC-1 (Q13547 whole entry): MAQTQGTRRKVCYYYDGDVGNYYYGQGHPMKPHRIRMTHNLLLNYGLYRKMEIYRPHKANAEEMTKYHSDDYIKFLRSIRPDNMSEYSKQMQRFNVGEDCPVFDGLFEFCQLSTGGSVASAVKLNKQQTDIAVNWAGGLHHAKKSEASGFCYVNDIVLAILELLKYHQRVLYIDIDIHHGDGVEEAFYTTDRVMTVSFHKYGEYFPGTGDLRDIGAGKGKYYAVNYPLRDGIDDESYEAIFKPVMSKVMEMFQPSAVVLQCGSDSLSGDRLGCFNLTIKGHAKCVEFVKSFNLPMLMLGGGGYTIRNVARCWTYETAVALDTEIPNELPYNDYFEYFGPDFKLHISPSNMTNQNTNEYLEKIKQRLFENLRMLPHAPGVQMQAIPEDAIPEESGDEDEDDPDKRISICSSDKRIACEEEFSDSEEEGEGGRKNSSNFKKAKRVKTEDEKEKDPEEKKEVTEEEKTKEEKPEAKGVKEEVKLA
Experimental: as §1, §2

[3] = molecular target: T1, purified recombinant human HDAC-8 (Homo sapiens, UniProt Q9BY41); experiment: HDAC-8 enzymatic inhibition (Boc-Lys(Tfa)-AMC / HDAC-Glo I/II); type: biochemical; settings: relative to compound 17
T1 construct: purchased Cayman Chem 10009465 (AMC assay (so in the source)); 19380 (HDAC-Glo assay)
T1 sequence (Q9BY41 1-377): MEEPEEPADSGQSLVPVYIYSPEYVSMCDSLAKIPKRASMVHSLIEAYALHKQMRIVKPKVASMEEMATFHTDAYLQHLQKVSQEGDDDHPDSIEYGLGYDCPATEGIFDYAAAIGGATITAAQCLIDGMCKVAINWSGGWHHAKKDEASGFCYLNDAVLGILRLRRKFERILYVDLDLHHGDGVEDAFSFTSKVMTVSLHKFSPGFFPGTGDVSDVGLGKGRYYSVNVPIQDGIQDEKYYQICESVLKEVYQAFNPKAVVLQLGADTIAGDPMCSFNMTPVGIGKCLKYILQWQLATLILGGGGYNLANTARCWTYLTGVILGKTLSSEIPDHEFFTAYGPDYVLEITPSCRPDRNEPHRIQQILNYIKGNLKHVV
Experimental: as §1
HDAC-8, HDAC-9, HDAC-10 and HDAC-11 were assayed using HDAC-Glo™ I/II Kit (Promega Corporation G6421) in a total volume of 110 μl following the manufacturer's instructions.
as §2

RAR = experiment: RAR-mediated transcription, RARE-tk luciferase reporter in MCF7 cells; type: cell-based
Source text: as §3, §4

C2Cl2 cells [4] = experiment: myoblast fusion in long term C2Cl2 cultures (MHC immunocytochemistry); type: cell-based; settings: for fusion of single cells into multinucleated C2Cl2 myotubes: long-term culture, suboptimal RPMI media with 2% horse serum
Experimental: The effect of compounds on myoblast fusion was examined in C2Cl2 cells maintained in RPMI media supplemented with 2% horse serum. C2Cl2 myoblastic cells where purchased from the American Type Culture Collection (ATCC) and maintained undifferentiated in RPMI media (Corning) supplemented with 2 mM L-Alanine-L-Glutamine (ATCC) and 1 mM pyruvate (Corning). Undifferentiated cells where maintained below 70% confluence. For long term cultures and compound treatment, cells where plated at high density CellBIND Culture Dishes (corning 3294, 3296, 3337) and in RPMI supplemented with 2% Horse Serum (Gibco) and 2 mM L-Alanine-L-Glutamine (ATCC) and 1 mM pyruvate (Corning). Compounds were dissolved in DMSO at 1000 time the final concentration and diluted 1-in-1000 in the media covering the cells. Media and compounds were changed daily. For immunocytochemistry, cells were fixed in 2% PFA in HBSS for 10 minutes and left in HBSS at 4° under humidified atmosphere and processed for immunocytochemistry. For myosin heavy chain detection (MHC), cells were first incubated in 100 ul-1 ml 0.15 M Glycine in DPBS for 10 minutes, rinse with DPBS. 100 ul-1 ml 0.5% Triton-X in DPBS was added for 10 minutes, rinsed with DPBS, and followed by incubation with 100 ul blocking agent (10% goat serum in DPBS) for 30 min at room temperature. MF20 primary antibody in 10% goat serum in DPBS was added at 1/60 dilution for 30 min at room temperature and rinsed three times with 100 ul DPBS. IgG2b goat anti mouse secondary antibody (Jackson Immuno-Research) was added at 1:1000 in 10% goat serum in DPBS for exactly 30 min at room temperature then rinsed 3 times with 100 ul DPBS. A final rinse in H2O was performed and cells were covered with two drops of Elvanol and cover gently with cover slip and allowed to dry in the dark for 24-48 hours.

mouse pharmacokinetics = type: in vivo; settings: mice
Experimental: Mouse pharmacokinetics studies were conducted in female athymic nude or male C57/B6 mice (n=3). Due to its very poor aqueous solubility, compound 17 was formulated in 66% PEG-400/33% H2O-1% Tween-80. In contrast compound 13 was formulated in 66% PEG-400/33% H2O. Compounds were administered PO (30 mg/kg) or IV (5 mg/kg), and plasma concentrations were measured by UV/HPLC.

C2Cl2 cells [5] = experiment: Q-RT PCR of myofiber-degradation associated genes in long term C2Cl2 cultures; type: cell-based; settings: day 10, normalized for RPLP0
Experimental: Quantitative RT-PCR was performed on RNA prepared from cell treated as in Example 9. At day 10 of the experiment, cells were rinsed in HBSS (without calcium or magnesium) and RNA was prepared using FastLane Cell cDNA Kit (Qiagen). Quantitative PCR was performed using Eppendorf and SYBR amplification mix (Sigma-Aldrich) using the gene specific primer combination given in Table 3. Data were normalized for ribosomal housekeeping gene RPLP0

C2Cl2 myoblasts = experiment: myotube fusion and degeneration in differentiated C2Cl2 cells left in exhausted media; type: cell-based; settings: 200 nM pre-treatment
Experimental: C2Cl2 myoblasts were seeded at 100,000 in 30 mm plate in growth medium (Phenol red-free RMPI containing 10% FBS, Sodium pyruvate and Ala-Glu), and “pre-treated” with DMSO or 200 nM of compounds 13 or 17. At confluence cells were shifted to differentiation media (high glucose DMEM, +0.2% HS+1× Insulin/Transferrin/Selenium (Life Tech 41400-045)+Glutamine, without Pyruvate). Fully differentiated C2Cl2-derived myotubes were left in culture without media renewal for 8 days followed by media renewal and microscopic examination.

aqueous solubility = type: physicochemical
[6] = system: BE-2C neuroblastoma cells; experiment: cytotoxicity, cell survival (CellTiterGlo) in BE-2C; type: cell-based; settings: BE-2C cells
Experimental: as §5

[7] = system: MDA-MB-231 breast cancer cells; experiment: cytotoxicity, cell survival (CellTiterGlo) in MDA-MB-231; type: cell-based; settings: MDA-MB-231 cells
Experimental: as §5

[8] = system: Lys40 acetylated alpha tubulin; experiment: intracellular acetylation of alpha-tubulin in BE-2C cells; type: cell-based; settings: 16 hours
Experimental: The effect of certain compounds on intracellular acetylation of target proteins was tested in high risk neuroblastoma cells, BE-2C and IMR-32 cells.
BE-2C cells were grown to confluence in phenol-red-free RPMI media supplemented with 10% FBS and 2.5 mM Ala-Glu. […] Total and Lys 40 acetylated alpha tubulin were detected using specific antibodies.
Beta actin, total and Lys382 acetylated p53, and Lys40 acetylated alpha, and total tubulin were detected using antibodies (Cell Signaling #8557, #2524 #2525, #12152 and #2144 respectively) using manufacturer recommended conditions.

[9] = mouse, plasma, PO (30 mg/kg) or IV (5 mg/kg), route per parameter not stated

CC1(C)CCC(C)(C)c2cc(-c3c[nH]c4ccc(C(=O)NO)cc34)ccc21 [Compound 5]
times more potent than compound 17 in inhibition of purified rat hepatic HDAC (purified rat liver HDAC): six
transcriptional activation of RXR / RXRE-promoter (RXR): none
fold more potent than compounds 17 and 8 in killing IMR-32 cells [1]: ten
maximal inhibition of HDAC-1 activity [2]: ~50%
times/fold more potent than compound 17 in HDAC-8 inhibition [3]: over 200

CC1(C)CCC(C)(C)c2cc(-c3ccc4nc(C(=O)NO)ccc4c3)ccc21 [Compound 8]
times more potent than compound 17 in inhibition of purified rat hepatic HDAC (purified rat liver HDAC): at least three
RARE-dependent luciferase expression (RAR): activated
transcriptional activation of RXR / RXRE-promoter (RXR): none

CC1(C)CCC(C)(C)c2cc(-c3ccc4cc(C(=O)NO)ccc4c3)ccc21 [Compound 17]
myotubes' length and diameter versus DMSO (C2Cl2 cells [4]; 300 nM): longer and larger
average nuclei per cell of polynucleated myotubes (C2Cl2 cells [4]; 300 nM, 10 days): 5-10 nuclei per cell
fusion of single cells into multinucleated C2Cl2 myotubes (C2Cl2 cells [4]): enhances the fusion
F (mouse pharmacokinetics; PO (30 mg/kg) and IV (5 mg/kg)): 19.7%
AUC(0-inf) (mouse pharmacokinetics; [9]): 28.7 µM·h
Cmax (mouse pharmacokinetics; [9]): 2080 nM
clearance (mouse pharmacokinetics; mouse, plasma, PO (30 mg/kg) or IV (5 mg/kg), route per parameter not stated, read-out: CLp): 10.2 mL/min/kg
MRT (mouse pharmacokinetics; mouse, plasma, PO (30 mg/kg) or IV (5 mg/kg), route per parameter not stated, read-out: MRT): 7.1 h
Tmax (mouse pharmacokinetics; mouse, plasma, PO (30 mg/kg) or IV (5 mg/kg), route per parameter not stated, read-out: Tmax): 4.3 h
Vd (mouse pharmacokinetics; mouse, plasma, PO (30 mg/kg) or IV (5 mg/kg), route per parameter not stated, read-out: Vd,ss): 4.6 L/kg
expression of Atrogin (C2Cl2 cells [5]): downregulates
expression of myogenin (C2Cl2 cells [5]): downregulates
transcriptional activation of RXR / RXRE-promoter (RXR): none
cellular fusion after 72 hours differentiation versus DMSO (C2Cl2 myoblasts): extensive cellular fusion
myotube structural atrophy in exhausted media for over 8 days (C2Cl2 myoblasts): very little structural alteration
aqueous solubility (aqueous solubility): very poor

CC1(C)CCC(C)(C)c2cc(-c3c[nH]c4cc(C(=O)NO)ccc34)ccc21 [Compound 18]
RARE-dependent luciferase expression (RAR): activated
transcriptional activation of RXR / RXRE-promoter (RXR): none
maximal inhibition of HDAC-1 activity [2]: ~50%
cytotoxic potency compared with compound 17, SAHA, Ricolinistat [6]: more potent than compound 17, SAHA or Ricolinistat
cytotoxic potency compared with compound 17, SAHA, Ricolinistat [7]: more potent than compound 17, SAHA or Ricolinistat

CC1(C)CCC(C)(C)c2cc(-c3ccc4cc(C(=O)NO)[nH]c4c3)ccc21 [Compound 19]
RARE-dependent luciferase expression (RAR): activated
transcriptional activation of RXR / RXRE-promoter (RXR): none

CC1(C)CCC(C)(C)c2cc(-c3ccc4cc(C(=O)NO)cnc4c3)ccc21 [Compound 20, N-hydroxy-7-(5,5,8,8-tetramethyl-5,6,7,8-tetrahydronaphthalen-2-yl)quinoline-3-carboxamide]
RARE-dependent luciferase expression (RAR): activated
transcriptional activation of RXR / RXRE-promoter (RXR): none

CC1(C)CCC(C)(C)c2cc(-c3ccc4ccc(C(=O)NO)cc4c3)ccc21 [Compound 21, N-hydroxy-5′,5′,8′,8′,-tetramethyl-5′,6′,7′,8′-tetrahydro-[2,2′-binaphthalene]-7-carboxamide]
transcriptional activation of RXR / RXRE-promoter (RXR): none

C/C(=C\c1ccc(C(=O)NO)cc1)c1ccc2c(c1)C(C)(C)CCC2(C)C [Compound B, (E)-N-hydroxy-4-(2-(5,5,8,8-tetramethyl-5,6,7,8-tetrahydronaphthalen-2-yl)prop-1-en-1-yl)benzamide]
fusion of single cells into multinucleated C2Cl2 myotubes (C2Cl2 cells [4]): enhances the fusion

O=C(CCCCCCNC(=O)c1cnc(N(c2ccccc2)c2ccccc2)nc1)NO [Ricolinostat]
Lysin (K) 40 alpha-Tubulin acetylation ([8]; 2 uM): pronounced Lysin (K) 40 alpha-Tubulin acetylation

O=C(CCCCCCC(=O)Nc1ccccc1)NO [SAHA, suberoylanilide hydroxamic acid]
Lysin (K) 40 alpha-Tubulin acetylation ([8]; 2 uM): pronounced Lysin (K) 40 alpha-Tubulin acetylation

CC(/C=C/C(=O)NO)=C\[C@@H](C)C(=O)c1ccc(N(C)C)cc1 [TSA, trichostatin A]
Lysin (K) 40 alpha-Tubulin acetylation ([8]; 1 uM): pronounced Lysin (K) 40 alpha-Tubulin acetylation

Reference: patent US10752591B2, “18-20 member bi-polycyclic compounds” (Haro Pharmaceutical Inc., priority 2014, dated 2020)
